One block for each molecule: values may come before it.
Columns and labels:
AKT1 = AKT1 (Homo sapiens, UniProt P31749); assay: biochemical; parameters: KINOMEscan (DiscoverX) competition binding screen of 97 human kinases, percent of control at 10 uM
Protocol: (§1) The KINOMEscan profiling of the inhibitors were performed as per directions by the manufacturer (DiscoverX) against a panel of human protein kinases.

BTK = BTK (Homo sapiens, UniProt Q06187); assay: biochemical; parameters: KINOMEscan (DiscoverX) competition binding screen of 97 human kinases, percent of control at 10 uM
Protocol: as §1

CDK2 = CDK2 (Homo sapiens, UniProt P24941); assay: biochemical; parameters: KINOMEscan (DiscoverX) competition binding screen of 97 human kinases, percent of control at 10 uM
Protocol: as §1

CDK3 = CDK3 (Homo sapiens, UniProt Q00526); assay: biochemical; parameters: KINOMEscan (DiscoverX) competition binding screen of 97 human kinases, percent of control at 10 uM
Protocol: as §1

CSNK1G2 = CSNK1G2 (Homo sapiens, UniProt P78368); assay: biochemical; parameters: KINOMEscan (DiscoverX) competition binding screen of 97 human kinases, percent of control at 10 uM
Protocol: as §1

EPHA2 = EPHA2 (Homo sapiens, UniProt P29317); assay: biochemical; parameters: KINOMEscan (DiscoverX) competition binding screen of 97 human kinases, percent of control at 10 uM
Protocol: as §1

IGF1R = IGF1R (Homo sapiens, UniProt P08069); assay: biochemical; parameters: KINOMEscan (DiscoverX) competition binding screen of 97 human kinases, percent of control at 10 uM
Protocol: as §1

IKK-alpha = molecular target: T1, IKK-alpha (Homo sapiens, UniProt O15111); assay: biochemical; parameters: KINOMEscan (DiscoverX) competition binding screen of 97 human kinases, percent of control at 10 uM
T1 construct: gene CHUK
Protocol: as §1

IKK-beta = molecular target: T2, IKK-beta (Homo sapiens, UniProt O14920); assay: biochemical; parameters: KINOMEscan (DiscoverX) competition binding screen of 97 human kinases, percent of control at 10 uM
T2 construct: gene IKBKB
Protocol: as §1

INSR = INSR (Homo sapiens, UniProt P06213); assay: biochemical; parameters: KINOMEscan (DiscoverX) competition binding screen of 97 human kinases, percent of control at 10 uM
Protocol: as §1

[1] = molecular target: T3, JAK2(JH1domain-catalytic) (Homo sapiens, UniProt O60674); assay: biochemical; parameters: KINOMEscan (DiscoverX) competition binding screen of 97 human kinases, percent of control at 10 uM
T3 construct: JH1domain-catalytic
Protocol: as §1

JNK1 = molecular target: T4, JNK1 (Homo sapiens, UniProt P45983); assay: biochemical; parameters: KINOMEscan (DiscoverX) competition binding screen of 97 human kinases, percent of control at 10 uM
T4 construct: gene MAPK8
Protocol: as §1

JNK2 = molecular target: T5, JNK2 (Homo sapiens, UniProt P45984); assay: biochemical; parameters: KINOMEscan (DiscoverX) competition binding screen of 97 human kinases, percent of control at 10 uM
T5 construct: gene MAPK9
Protocol: as §1

LKB1 = molecular target: T6, LKB1 (Homo sapiens, UniProt Q15831); assay: biochemical; parameters: KINOMEscan (DiscoverX) competition binding screen of 97 human kinases, percent of control at 10 uM
T6 construct: gene STK11
Protocol: as §1

MAPKAPK2 = MAPKAPK2 (Homo sapiens, UniProt P49137); assay: biochemical; parameters: KINOMEscan (DiscoverX) competition binding screen of 97 human kinases, percent of control at 10 uM
Protocol: as §1

PIM2 = PIM2 (Homo sapiens, UniProt Q9P1W9); assay: biochemical; parameters: KINOMEscan (DiscoverX) competition binding screen of 97 human kinases, percent of control at 10 uM
Protocol: as §1

RIOK2 = RIOK2 (Homo sapiens, UniProt Q9BVS4); assay: biochemical; parameters: KINOMEscan (DiscoverX) competition binding screen of 97 human kinases, percent of control at 10 uM
Protocol: as §1

[2] = molecular target: T7, RSK2(Kin.Dom.1-N-terminal) (Homo sapiens, UniProt P51812); assay: biochemical; parameters: KINOMEscan (DiscoverX) competition binding screen of 97 human kinases, percent of control at 10 uM
T7 construct: gene RPS6KA3; Kin.Dom.1-N-terminal
Protocol: as §1

SNARK = molecular target: T8, SNARK (Homo sapiens, UniProt Q9H093); assay: biochemical; parameters: KINOMEscan (DiscoverX) competition binding screen of 97 human kinases, percent of control at 10 uM
T8 construct: gene NUAK2
Protocol: as §1

TSSK1B = TSSK1B (Homo sapiens, UniProt Q9BXA7); assay: biochemical; parameters: KINOMEscan (DiscoverX) competition binding screen of 97 human kinases, percent of control at 10 uM
Protocol: as §1

YANK3 = molecular target: T9, YANK3 (Homo sapiens, UniProt Q86UX6); assay: biochemical; parameters: KINOMEscan (DiscoverX) competition binding screen of 97 human kinases, percent of control at 10 uM
T9 construct: gene STK32C
Protocol: as §1

TIE2 = TIE2 (Homo sapiens, UniProt Q02763); assay: biochemical; parameters: gene TEK; KINOMEscan (DiscoverX) competition binding screen of 97 human kinases, percent of control at 10 uM
Protocol: as §1

KIT = KIT (Homo sapiens, UniProt P10721)
VEGFR2 = VEGFR2 (Homo sapiens, UniProt P35968); assay: KINOMEscan profiling at […]; type: binding; parameters: gene KDR; kinase domain
[3] = binding competition, % of control, read-out: RU-301 %Ctrl @ 10000nM
[4] = read-out: R428 %Ctrl @ 10000nM, binding competition

T8 sequence (Q9H093 whole entry): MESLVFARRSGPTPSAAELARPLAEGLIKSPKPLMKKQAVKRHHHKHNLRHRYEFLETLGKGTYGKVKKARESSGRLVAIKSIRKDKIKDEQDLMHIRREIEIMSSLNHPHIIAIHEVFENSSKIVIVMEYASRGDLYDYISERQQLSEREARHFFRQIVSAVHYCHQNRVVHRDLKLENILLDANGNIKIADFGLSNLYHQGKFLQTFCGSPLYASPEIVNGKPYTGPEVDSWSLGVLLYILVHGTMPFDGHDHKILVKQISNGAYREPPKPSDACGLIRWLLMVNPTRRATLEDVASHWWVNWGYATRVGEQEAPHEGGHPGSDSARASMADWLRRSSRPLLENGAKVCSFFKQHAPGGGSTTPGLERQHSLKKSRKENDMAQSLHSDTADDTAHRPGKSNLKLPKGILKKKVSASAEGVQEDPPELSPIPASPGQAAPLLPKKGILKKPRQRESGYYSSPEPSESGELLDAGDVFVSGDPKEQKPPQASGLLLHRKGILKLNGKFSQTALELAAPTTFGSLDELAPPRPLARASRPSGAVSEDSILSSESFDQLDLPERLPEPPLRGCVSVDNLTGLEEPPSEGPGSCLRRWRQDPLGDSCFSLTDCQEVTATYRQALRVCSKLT
T2 sequence (O14920 whole entry): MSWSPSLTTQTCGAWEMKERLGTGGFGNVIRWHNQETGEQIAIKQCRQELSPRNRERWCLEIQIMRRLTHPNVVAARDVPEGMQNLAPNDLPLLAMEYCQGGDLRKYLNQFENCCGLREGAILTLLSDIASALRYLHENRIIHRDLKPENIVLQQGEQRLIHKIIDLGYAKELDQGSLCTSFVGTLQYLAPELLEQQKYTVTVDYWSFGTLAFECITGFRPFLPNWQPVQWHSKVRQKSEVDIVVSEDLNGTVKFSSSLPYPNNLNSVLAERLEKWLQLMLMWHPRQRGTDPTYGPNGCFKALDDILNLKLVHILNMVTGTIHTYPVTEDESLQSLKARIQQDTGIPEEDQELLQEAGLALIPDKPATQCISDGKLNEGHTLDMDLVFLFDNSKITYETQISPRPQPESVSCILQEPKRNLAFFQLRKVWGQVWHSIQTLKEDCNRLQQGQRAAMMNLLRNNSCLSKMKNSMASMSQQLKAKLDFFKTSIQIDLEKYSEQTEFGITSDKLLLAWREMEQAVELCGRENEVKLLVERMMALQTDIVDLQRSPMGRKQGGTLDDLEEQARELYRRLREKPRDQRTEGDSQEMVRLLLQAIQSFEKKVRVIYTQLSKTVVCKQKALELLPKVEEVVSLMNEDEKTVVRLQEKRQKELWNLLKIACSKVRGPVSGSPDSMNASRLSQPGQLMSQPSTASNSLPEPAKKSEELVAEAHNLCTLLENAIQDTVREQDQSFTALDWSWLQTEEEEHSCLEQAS
Chain of EPHA2 (P29317 whole entry): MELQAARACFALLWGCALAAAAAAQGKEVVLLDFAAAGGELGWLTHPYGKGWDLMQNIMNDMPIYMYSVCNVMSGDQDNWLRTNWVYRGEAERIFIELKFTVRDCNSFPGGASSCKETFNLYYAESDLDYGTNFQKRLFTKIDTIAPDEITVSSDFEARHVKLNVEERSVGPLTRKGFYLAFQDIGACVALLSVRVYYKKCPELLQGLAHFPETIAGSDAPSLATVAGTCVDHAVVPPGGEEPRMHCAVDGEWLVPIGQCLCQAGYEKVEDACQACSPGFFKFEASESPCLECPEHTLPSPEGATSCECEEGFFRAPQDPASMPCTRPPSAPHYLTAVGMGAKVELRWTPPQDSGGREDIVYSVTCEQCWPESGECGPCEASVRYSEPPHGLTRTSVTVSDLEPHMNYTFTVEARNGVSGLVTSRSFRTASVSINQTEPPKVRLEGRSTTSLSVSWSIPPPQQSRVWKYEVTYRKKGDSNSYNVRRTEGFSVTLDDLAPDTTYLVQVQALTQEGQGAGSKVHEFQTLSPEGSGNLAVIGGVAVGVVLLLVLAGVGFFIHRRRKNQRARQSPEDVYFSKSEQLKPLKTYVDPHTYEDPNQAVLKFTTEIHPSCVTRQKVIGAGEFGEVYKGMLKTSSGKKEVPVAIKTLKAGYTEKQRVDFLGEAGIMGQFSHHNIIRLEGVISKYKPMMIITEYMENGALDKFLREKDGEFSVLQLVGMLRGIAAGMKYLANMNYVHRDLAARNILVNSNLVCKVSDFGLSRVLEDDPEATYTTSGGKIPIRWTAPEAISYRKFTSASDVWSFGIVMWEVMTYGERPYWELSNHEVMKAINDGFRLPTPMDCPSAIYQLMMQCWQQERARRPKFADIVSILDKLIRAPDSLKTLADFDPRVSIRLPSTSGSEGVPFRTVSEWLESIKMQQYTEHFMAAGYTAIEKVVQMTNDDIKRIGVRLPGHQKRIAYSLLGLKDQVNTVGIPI
Chain of PIM2 (Q9P1W9 whole entry): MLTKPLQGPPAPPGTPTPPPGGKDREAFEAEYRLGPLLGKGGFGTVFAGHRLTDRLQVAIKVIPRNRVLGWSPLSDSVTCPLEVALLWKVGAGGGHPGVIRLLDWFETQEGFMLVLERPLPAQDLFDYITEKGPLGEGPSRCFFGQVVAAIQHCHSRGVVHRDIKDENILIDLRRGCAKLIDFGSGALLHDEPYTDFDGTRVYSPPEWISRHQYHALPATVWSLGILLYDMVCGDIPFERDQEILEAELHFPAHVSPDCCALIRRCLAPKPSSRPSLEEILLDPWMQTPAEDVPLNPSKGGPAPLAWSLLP
Chain of TIE2 (Q02763 whole entry): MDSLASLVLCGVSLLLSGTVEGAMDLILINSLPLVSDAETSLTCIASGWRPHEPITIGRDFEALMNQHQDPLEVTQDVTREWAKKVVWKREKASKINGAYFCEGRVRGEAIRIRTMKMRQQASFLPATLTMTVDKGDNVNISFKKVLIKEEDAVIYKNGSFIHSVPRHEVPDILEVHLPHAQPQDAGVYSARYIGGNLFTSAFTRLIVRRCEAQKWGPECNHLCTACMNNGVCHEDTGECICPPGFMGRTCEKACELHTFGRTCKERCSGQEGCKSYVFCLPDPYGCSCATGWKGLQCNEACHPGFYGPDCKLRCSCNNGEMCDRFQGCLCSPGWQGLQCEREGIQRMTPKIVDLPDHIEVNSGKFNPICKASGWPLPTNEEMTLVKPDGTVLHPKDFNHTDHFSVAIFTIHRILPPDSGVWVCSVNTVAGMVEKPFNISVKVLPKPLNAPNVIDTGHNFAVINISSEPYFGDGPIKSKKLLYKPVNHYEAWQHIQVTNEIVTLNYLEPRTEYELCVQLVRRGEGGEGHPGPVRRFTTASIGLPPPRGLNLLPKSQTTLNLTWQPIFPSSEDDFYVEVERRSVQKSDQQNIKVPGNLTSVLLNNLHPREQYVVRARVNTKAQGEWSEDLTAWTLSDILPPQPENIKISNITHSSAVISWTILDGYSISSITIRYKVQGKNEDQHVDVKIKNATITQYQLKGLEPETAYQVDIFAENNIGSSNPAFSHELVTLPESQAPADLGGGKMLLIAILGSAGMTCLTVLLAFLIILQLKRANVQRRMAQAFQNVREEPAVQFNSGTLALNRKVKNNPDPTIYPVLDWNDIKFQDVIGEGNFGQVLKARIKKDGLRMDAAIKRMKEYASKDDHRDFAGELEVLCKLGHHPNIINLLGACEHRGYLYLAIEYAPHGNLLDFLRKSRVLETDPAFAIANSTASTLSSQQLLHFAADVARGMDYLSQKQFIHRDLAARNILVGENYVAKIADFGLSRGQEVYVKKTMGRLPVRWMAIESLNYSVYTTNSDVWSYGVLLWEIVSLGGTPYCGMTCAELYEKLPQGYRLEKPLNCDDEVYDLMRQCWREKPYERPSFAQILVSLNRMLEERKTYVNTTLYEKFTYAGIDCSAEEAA
T4 sequence (P45983 whole entry): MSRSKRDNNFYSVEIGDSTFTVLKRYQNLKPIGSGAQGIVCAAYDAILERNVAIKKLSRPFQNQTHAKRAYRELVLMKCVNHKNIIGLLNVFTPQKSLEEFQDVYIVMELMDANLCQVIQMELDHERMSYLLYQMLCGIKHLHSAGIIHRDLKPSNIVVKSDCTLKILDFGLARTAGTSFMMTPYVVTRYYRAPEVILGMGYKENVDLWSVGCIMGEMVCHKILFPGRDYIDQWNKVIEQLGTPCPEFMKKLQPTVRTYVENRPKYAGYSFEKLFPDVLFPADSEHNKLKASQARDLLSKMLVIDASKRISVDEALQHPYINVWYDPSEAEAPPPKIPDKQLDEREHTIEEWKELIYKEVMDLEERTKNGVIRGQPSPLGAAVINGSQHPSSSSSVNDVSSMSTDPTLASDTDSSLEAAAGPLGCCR
T9 sequence (Q86UX6 whole entry): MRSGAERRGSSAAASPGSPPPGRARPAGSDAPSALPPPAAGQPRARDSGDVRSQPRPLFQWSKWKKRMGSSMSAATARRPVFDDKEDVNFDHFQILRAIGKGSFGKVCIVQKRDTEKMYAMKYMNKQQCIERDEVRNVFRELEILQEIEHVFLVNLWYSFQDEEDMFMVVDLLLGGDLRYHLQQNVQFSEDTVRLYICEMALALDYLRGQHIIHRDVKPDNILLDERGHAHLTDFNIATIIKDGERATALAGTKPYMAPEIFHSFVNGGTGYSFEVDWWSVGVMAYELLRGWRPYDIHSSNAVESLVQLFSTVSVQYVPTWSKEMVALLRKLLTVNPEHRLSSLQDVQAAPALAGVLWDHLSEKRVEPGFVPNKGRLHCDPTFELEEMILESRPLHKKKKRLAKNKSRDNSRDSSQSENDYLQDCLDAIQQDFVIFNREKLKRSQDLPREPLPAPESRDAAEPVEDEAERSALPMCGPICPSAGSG
Chain of CDK3 (Q00526 whole entry): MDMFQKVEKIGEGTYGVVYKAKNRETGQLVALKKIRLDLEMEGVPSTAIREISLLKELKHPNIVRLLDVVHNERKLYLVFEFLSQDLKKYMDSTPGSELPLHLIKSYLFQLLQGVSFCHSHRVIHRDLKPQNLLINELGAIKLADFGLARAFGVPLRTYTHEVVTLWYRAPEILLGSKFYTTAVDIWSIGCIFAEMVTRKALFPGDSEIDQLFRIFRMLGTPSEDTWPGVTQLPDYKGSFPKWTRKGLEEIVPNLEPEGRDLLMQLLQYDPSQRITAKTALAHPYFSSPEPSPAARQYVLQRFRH

remaining binding at 10 µM (AKT1; [3]): 88%
remaining binding at 10 µM (BTK; [3]): 100%
remaining binding at 10 µM (CDK2; [3]): 100%
remaining binding at 10 µM (CDK3; [3]): 93%
remaining binding at 10 µM (CSNK1G2; [3]): 100%
remaining binding at 10 µM (EPHA2; [3]): 96%
remaining binding at 10 µM (IGF1R; [3]): 98%
remaining binding at 10 µM (IKK-alpha; [3]): 86%
remaining binding at 10 µM (IKK-beta; [3]): 100%
remaining binding at 10 µM (INSR; [3]): 89%
remaining binding at 10 µM [1, 3]: 87%
remaining binding at 10 µM (JNK1; [3]): 91%
remaining binding at 10 µM (JNK2; [3]): 97%
remaining binding at 10 µM (LKB1; [3]): 77%
remaining binding at 10 µM (MAPKAPK2; [3]): 100%
remaining binding at 10 µM (PIM2; [3]): 83%
remaining binding at 10 µM (RIOK2; [3]): 100%
remaining binding at 10 µM [2, 3]: 74%
remaining binding at 10 µM (SNARK; [3]): 100%
remaining binding at 10 µM (TSSK1B; [3]): 78%
remaining binding at 10 µM (YANK3; [3]): 100%
remaining binding at 10 µM (TIE2; [3]): 100%
SMILES: Cc1cc(CSc2ccccc2C(=O)NCCNc2ccc(C(F)(F)F)cc2[N+](=O)[O-])on1 [RU-301]

percent of control binding at 10 µM (AKT1; [4]): 100%
percent of control binding at 10 µM (BTK; [4]): 31%
percent of control binding at 10 µM (CDK2; [4]): 71%
percent of control binding at 10 µM (CDK3; [4]): 72%
percent of control binding at 10 µM (CSNK1G2; [4]): 4.6%
percent of control binding at 10 µM (EPHA2; [4]): 71%
percent of control binding at 10 µM (IGF1R; [4]): 99%
percent of control binding at 10 µM (IKK-alpha; [4]): 0.5%
percent of control binding at 10 µM (IKK-beta; [4]): 4.8%
percent of control binding at 10 µM (INSR; [4]): 14%
percent of control binding at 10 µM [1, 4]: 0%
percent of control binding at 10 µM (JNK1; [4]): 14%
percent of control binding at 10 µM (JNK2; [4]): 96%
percent of control binding at 10 µM (LKB1; [4]): 60%
percent of control binding at 10 µM (MAPKAPK2; [4]): 87%
percent of control binding at 10 µM (PIM2; [4]): 100%
percent of control binding at 10 µM (RIOK2; [4]): 94%
percent of control binding at 10 µM [2, 4]: 2.1%
percent of control binding at 10 µM (SNARK; [4]): 0.65%
percent of control binding at 10 µM (TSSK1B; [4]): 22%
percent of control binding at 10 µM (YANK3; [4]): 100%
percent of control binding at 10 µM (TIE2; [4]): 0.45%
SMILES: Nc1nc(Nc2ccc3c(c2)CC[C@@H](N2CCCC2)CC3)nn1-c1cc2c(nn1)-c1ccccc1CCC2 [R428]
KINOMEscan profiling at 10 uM (KIT): R428 also bound to several other kinases, including Abl, Aurora kinases, KIT
KINOMEscan profiling at 10 uM (VEGFR2): KIT, PDGFR A and B, RET, TIE2, VEGFR2, JAK2, JAK3 and FLT3 kinases
